According to paper PMC3088499 (Journal of medicinal chemistry, 2008):
“Also recorded” adds a separate entry of the source. Counter-ions that a name gives are not always drawn. Like-named read-outs stand apart in the source and are kept apart here.

Columns and labels:
[1] = molecular target: T1, 5-HT2A receptor F340^6.52L mutant (Rattus norvegicus, UniProt P14842, F340L); test: [3H]ketanserin binding at F340L mutant 5-HT2A receptor; details: F340L vs wild type 5-HT2A
NET = NET (Homo sapiens, UniProt P23975); test: [3H]nisoxitine binding, NET
NET, sequence (P23975 whole entry): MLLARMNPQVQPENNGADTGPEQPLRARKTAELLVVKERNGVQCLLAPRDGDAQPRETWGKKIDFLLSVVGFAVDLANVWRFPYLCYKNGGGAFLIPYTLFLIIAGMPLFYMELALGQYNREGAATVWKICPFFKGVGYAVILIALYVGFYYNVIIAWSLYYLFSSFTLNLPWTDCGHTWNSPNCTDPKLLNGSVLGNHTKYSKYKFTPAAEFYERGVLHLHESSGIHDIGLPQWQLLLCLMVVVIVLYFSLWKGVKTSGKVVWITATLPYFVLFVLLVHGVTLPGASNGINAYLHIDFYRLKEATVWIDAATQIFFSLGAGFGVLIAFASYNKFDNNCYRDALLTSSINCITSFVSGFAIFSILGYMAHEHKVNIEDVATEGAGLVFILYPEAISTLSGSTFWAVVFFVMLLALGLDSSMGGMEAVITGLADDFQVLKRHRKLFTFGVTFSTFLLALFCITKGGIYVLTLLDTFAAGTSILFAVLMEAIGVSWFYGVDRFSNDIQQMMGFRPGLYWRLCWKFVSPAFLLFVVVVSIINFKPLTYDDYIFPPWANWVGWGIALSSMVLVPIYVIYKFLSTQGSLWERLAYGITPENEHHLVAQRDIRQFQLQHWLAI

5-HT2A sites = details: read-out: Ki, 5-HT2A receptor affinity; [3H]Ketanserin-labeled 5-HT2A sites; ref [13]; cited from earlier work
[2] = molecular target: T1, 5-HT2A receptor F340^6.52L mutant; details: F340L vs wild type 5-HT2A, fold decrease; ref [41]; cited from earlier work
5-HT2A W367^7.40L mutant = details: ref [44]; cited from earlier work
5-HT2A F340^6.52L mutant = details: cited from earlier work
5-HT2A M132^2.62L mutant = details: ref [107]; cited from earlier work
5-HT2A T134^2.64A mutant = details: ref [107]; cited from earlier work
5-HT2A S159^3.36C mutant = details: ref [45]; cited from earlier work
5-HT2A W200^4.50A mutant = details: ref [44]; cited from earlier work
5-HT2A D172^3.49N mutant = details: ref [105]; cited from earlier work
5-HT2A F125^2.55S mutant = details: ref [107]; cited from earlier work
5-HT2A F125^2.55L mutant = details: cited from earlier work
5-HT2A S159^3.36A mutant = details: ref [45]; cited from earlier work

T1 sequence (P14842 whole entry F340L): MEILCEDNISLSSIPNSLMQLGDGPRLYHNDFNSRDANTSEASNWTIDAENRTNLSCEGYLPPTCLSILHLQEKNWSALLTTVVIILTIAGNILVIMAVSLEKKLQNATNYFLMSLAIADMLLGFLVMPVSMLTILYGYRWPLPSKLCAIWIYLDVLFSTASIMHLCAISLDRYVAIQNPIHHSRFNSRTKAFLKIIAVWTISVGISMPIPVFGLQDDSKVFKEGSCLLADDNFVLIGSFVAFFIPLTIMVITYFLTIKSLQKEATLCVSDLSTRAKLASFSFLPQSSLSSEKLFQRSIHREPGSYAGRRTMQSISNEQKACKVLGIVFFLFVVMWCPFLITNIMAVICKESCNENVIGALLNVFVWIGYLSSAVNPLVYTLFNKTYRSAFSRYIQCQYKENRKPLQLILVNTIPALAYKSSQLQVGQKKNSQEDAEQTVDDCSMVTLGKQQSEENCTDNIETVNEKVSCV

For NCC1c2ccccc2Cc2ccccc21 [Compound 1a, 9-aminomethyl-9,10-dihydroanthracene], the “decrease in affinity at F340L mutant compared to wild type receptor” value [1] was 3 fold.

For NCC1c2ccccc2Cc2cc(Br)ccc21 (stereo not shown) [Compound 1b, 3-Bromo-9-aminomethyl-9,10-dihydroanthracene hydrochloride], the “decrease in affinity at F340L mutant compared to wild type receptor” value [1] was “no change in affinity”.

For CCCCCCc1ccc2c(c1)Cc1ccccc1C2CN (stereo not shown) [Compound 1d, 3-n-Hexyl-9-aminomethyl-9,10-dihydroanthracene fumarate], the “selectivity for the 5-HT2A receptor over the norepinephrine transporter” value (NET) was 120 fold.

In the case of COc1cc(CC(C)N)c(OC)cc1O (stereo not shown) [Compound 2g], the Ki (5-HT2A sites) is listed as > 50 µM.

For COc1cc(CC(C)N)c(OC)cc1I (stereo not shown) [DOI, 2,5-dimethoxy-4-iodoamphetamine], the “effect of F340L mutation on affinity” value [2] is listed as “approximately 14,000 fold”.

In the case of O=C(c1ccc(F)cc1)C1CCN(CCn2c(=O)[nH]c3ccccc3c2=O)CC1 [ketanserin], the “Effect on ketanserin binding affinity” value (5-HT2A W367^7.40L mutant) is listed as “abolished; also recorded: no detectable binding”, the “Effect on ketanserin binding affinity” value (5-HT2A F340^6.52L mutant; ref [104]) is listed as “no effect” and the “Effect on ketanserin binding affinity” value (5-HT2A F340^6.52L mutant; ref [107]) is listed as “no effect”. For the same compound, the “Effect on ketanserin binding affinity” value (5-HT2A M132^2.62L mutant) was “no effect”, the “Effect on ketanserin binding affinity” value (5-HT2A T134^2.64A mutant) was “no effect” and the “Effect on ketanserin binding affinity” value (5-HT2A S159^3.36C mutant) was “no effect”. For the same compound, the “Effect on ketanserin binding affinity” value (5-HT2A W200^4.50A mutant) was “no effect”, the “Effect on ketanserin binding affinity” value (5-HT2A D172^3.49N mutant) was “no effect” and the “Effect on ketanserin binding affinity” value (5-HT2A F125^2.55S mutant) was “no effect”. For the same compound, the “effect of F340L mutation on affinity” value [2] was “little effect”, the “Effect on ketanserin binding affinity” value (5-HT2A F125^2.55L mutant; ref [44]) was “no effect” and the “Effect on ketanserin binding affinity” value (5-HT2A F125^2.55L mutant; ref [104]) was “no effect”. For the same compound, the “Effect on ketanserin binding affinity” value (5-HT2A F125^2.55L mutant; ref [106]) was “no effect” and the “Effect on ketanserin binding affinity” value (5-HT2A S159^3.36A mutant) was “no effect”.
